Laboratory results: patent publication US7173004B2, “Macrocyclic isoquinoline peptide inhibitors of hepatitis C virus” (Bristol-Myers Squibb Company, priority 2003, dated 2007)
pEC50: −log10 of the molar value.

System: HCV replicon (HCV 1b-377-neo replicon cells, Huh7)
Experiment: HCV replicon cell-based FRET assay
Conditions: Hepatitis C virus, Huh-7
Procedure: HCV Replion assays were utilized in the present invention, and were prepared, conducted and validated as follows:
An HCV replicon whole cell system was established as described by Lohmann V, Korner F, Koch J, Herian U, Theilmann L, Bartenschlager R., Science 285(5424): 110–3 (1999). This system enabled us to evaluate the effects of our HCV Protease compounds on HCV RNA replication. Briefly, using the HCV strain 1B sequence described in the Lohmann paper (Assession number: AJ238799), an HCV cDNA was synthesized by Operon Technologies, Inc. (Alameda, Calif.), and the full-length replicon was then assembled in plasmid pGem9zf(+) (Promega, Madison, Wis.) using standard molecular biology techniques. The replicon consists of (i) the HCV 5′ UTR fused to the first 12 amino acids of the capsid protein, (ii) the neomycin phosphotransferase gene (neo), (iii) the IRES from encephalomyocarditis virus (EMCV), and (iv) HCV NS3 to NS5B genes and the HCV 3′ UTR. Plasmid DNAs were linearized with ScaI and RNA transcripts were synthesized in vitro using the T7 MegaScript transcription kit (Ambion, Austin, Tex.) according to manufacturer's directions. To generate cell lines, 4×10^6 Huh-7 cells (kindly provided by R. Bartenschlager and available from Health Science Research Resources Bank, Japan Health Sciences Foundation) were electroporated (GenePulser System, Bio-Rad) with 10 microgram(“μg”) of RNA transcript and plated into 100-mm dishes. After 24 h, selective media containing 1.0 milligrams/milliliter (“mg/ml”) G418 was added and media was changed every 3 to 5 days. Approximately 4 weeks after electroporation, small colonies were visible which were isolated and expanded for further analysis. These cell lines were maintained at 37° C., 5% CO2, 100% relative humidity in DMEM (Cat# 11965-084) Gibco-BRL, Rockville, Md., with 10% heat inactivated calf serum (Sigma), 10 ml of 100× penicillin/streptomycin (Cat# 15140-122) Gibco-BRL, Rockville, Md., Geneticin (Cat# 10131-027) Gibco-BRL, Rockville, Md. at 1 mg/ml. One of the cell lines (deposited as ATCC Accession No. PTA-4583 in the American Type Culture Collection) which had approximately 3,000 copies of HCV replicon RNA/cell was used for development of the assay (HCV 1b-377-neo replicon cells).
Huh7 cells, constitutively expressing the HCV replicon, were grown in Dulbecco's Modified Eagle Media (DMEM) containing 10% Fetal calf serum (FCS) and 1 mg/ml G418 (Gibco-BRL). Cells were seeded the night before (1.5×10^4 cells/well) in 96-well tissue-culture sterile plates. Compound and no compound controls were prepared in DMEM containing 4% FCS, 1:100 Penicillin/Streptomysin, 1:100 L-glutamine and 5% DMSO in the dilution plate (0.5% DMSO final concentration in the assay). Compound/DMSO mixes were added to the cells and incubated for 4 days at 37° C. After 4 days, cells were first assessed for cytotoxicity using alamar Blue (Trek Diagnotstic Systems) for a CC50 reading. The toxicity of compound (CC50) was determined by adding 1/10th volume of alamar Blue to the media incubating the cells. After 4 hr, the fluorescence signal from each well was read, with an excitation wavelength at 530 nm and an emission wavelength of 580 nm, using the Cytofluor Series 4000 (Perspective Biosystems). Plates were then rinsed thoroughly with Phosphate-Buffered Saline (PBS) (3 times 150 μl). The cells were lysed with 25 μl of a lysis assay reagent containing an HCV protease substrate (5× cell Luciferase cell culture lysis reagent (Promega #E153A) diluted to 1× with distilled water, NaCl added to 150 mM final, the FRET peptide diluted to 10 μM final from a 2 mM stock in 100% DMSO). The HCV protease substrate (FRET peptide; AnaSpec, Inc. cat #22991, described by Taliani et al. in Anal. Biochem. 240(2):60–67 (1996)) contains a fluorescence donor, EDANS, near one end of the peptide and an acceptor, DABCYL, near the other end. […]

Question: `CCCC1(S(=O)(=O)NC(=O)[C@@]23C[C@H]2/C=C\CCCCC[C@H](NC(=O)OC(C)(C)C)C(=O)N2C[C@H](Oc4nccc5ccccc45)C[C@H]2C(=O)N3)CC1` [Compound 6, [18-(Isoquinolin-1-yloxy)-2,15-dioxo-4-(1-propyl-cyclopropanesulfonylaminocarbonyl)-3,16-diaza-tricyclo[14.3.0.0^4,6]nonadec-7-en-14-yl]-carbamic acid tert-butyl ester] was tested. Which pEC50 did it give?
Answer: Its pEC50 is over 7.30.

Question: With `CC(C)(C)OC(=O)N[C@H]1CCCCC/C=C\[C@@H]2C[C@@]2(C(=O)NS(=O)(=O)C2CC2)NC(=O)[C@@H]2C[C@@H](Oc3nccc4ccccc34)CN2C1=O` [Compound 4, [4-Cyclopropanesulfonylaminocarbonyl-18-(isoquinolin-1-yloxy)-2,15-dioxo-3,16-diaza-tricyclo[14.3.0.0^4,6]nonadec-7-en-14-yl]-carbamic acid tert-butyl ester] as the compound, how does the pEC50 read?
Answer: Its pEC50 is over 7.30.

Question: `CCCC1(S(=O)(=O)NC(=O)[C@@]23C[C@H]2CCCCCCC[C@H](NC(=O)OC(C)(C)C)C(=O)N2C[C@H](Oc4nccc5ccccc45)C[C@H]2C(=O)N3)CC1` [Compound 7, [18-(Isoquinolin-1-yloxy)-2,15-dioxo-4-(1-propyl-cyclopropanesulfonylaminocarbonyl)-3,16-diaza-tricyclo[14.3.0.0^4,6]nonadec-14-yl]-carbamic acid tert-butyl ester] was tested. Which pEC50 did it give?
Answer: Its pEC50 is over 7.30.

Question: How did the pEC50 turn out when `COc1ccc2c(OC3CC4C(=O)NC5(C(=O)NS(=O)(=O)C6(C)CC6)CC5C=CCCCCCC(NC(=O)OC(C)(C)C)C(=O)N4C3)nccc2c1` (stereo not shown) [Compound 53] was run?
Answer: The pEC50 was over 7.30.

Question: How did the pEC50 turn out when `CCC1(S(=O)(=O)NC(=O)C23CC2C=CCCCSCC(NC(=O)OC(C)C)C(=O)N2CC(Oc4nccc5cc(OC)ccc45)CC2C(=O)N3)CC1` (stereo not shown) [Compound 44] was run?
Answer: The pEC50 was over 7.30.

Question: How did the pEC50 turn out when `COc1ccc2c(O[C@@H]3C[C@H]4C(=O)N[C@]5(C(=O)O)C[C@H]5/C=C\CCCSC(C)(C)[C@H](NC(=O)OC(C)(C)C)C(=O)N4C3)nccc2c1` [Compound 79, (1S,4R,6S,14R,18R)-7-cis-14-tert-Butoxycarbonylamino-13,13-dimethyl-18-(6-methoxy-isoquinolin-1-yloxy)-2,15-dioxo-12-thia-3,16-diazatricyclo[14.3.0.0^4,6]nonadec-7-ene-4-carboxylic acid] was run?
Answer: Its pEC50 is 4.30 to 5.30.

Question: `COc1ccc2c(OC3C[C@H]4C(=O)N[C@]5(C(=O)NS(=O)(=O)C6CC6)C[C@H]5/C=C\CCCSC[C@H](NC(=O)OC(C)(C)C)C(=O)N4C3)nccc2c1` (stereo partly shown) [Compound 18B, [4-Cyclopropanesulfonylaminocarbonyl-18-(6-methoxy-isoquinolin-1-yloxy)-2,15-dioxo-12-thia-3,16-diaza-tricyclo[14.3.0.0^4,6]nonadec-7-en-14-yl]-carbamic acid tert-butyl ester] was tested. Which pEC50 did it give?
Answer: Its pEC50 is over 7.30.

Question: With `CC1(OC(=O)NC2CCCCCC=CC3CC3(C(=O)NS(=O)(=O)C3CC3)NC(=O)C3CC(Oc4nccc5ccccc45)CN3C2=O)CCCC1` (stereo not shown) [Compound 50] as the compound, how does the pEC50 read?
Answer: Its pEC50 is over 7.30.

Question: How did the pEC50 turn out when `COc1ccc2c(OC3CC4C(=O)NC5(C(=O)NS(=O)(=O)C6(C)CC6)CC5C=CCCCOC(C)C(NC(=O)NC5CCCC5)C(=O)N4C3)nccc2c1` (stereo not shown) [Compound 69] was run?
Answer: The pEC50 was over 7.30.

Question: How did the pEC50 turn out when `COc1ccc2c(OC3CC4C(=O)NC5(C(=O)NS(=O)(=O)C6CC6)CC5C=CCCCSCC(NC(=O)OC(C)C)C(=O)N4C3)nccc2c1` (stereo not shown) [Compound 74] was run?
Answer: The pEC50 was over 7.30.

Question: How did the pEC50 turn out when `CC(C)(C)OC(=O)N[C@H]1CCCCCCC[C@@H]2C[C@@]2(C(=O)NS(=O)(=O)C2CC2)NC(=O)[C@@H]2C[C@@H](Oc3nccc4ccccc34)CN2C1=O` [Compound 10, [4-Cyclopropanesulfonylaminocarbonyl-18-(isoquinolin-1-yloxy)-2,15-dioxo-3,16-diaza-tricyclo[14.3.0.0^4,6]nonadec-14-yl]-carbamic acid tert-butyl ester] was run?
Answer: Its pEC50 is over 7.30.

Question: How did the pEC50 turn out when `COc1ccc2c(OC3CC4C(=O)NC5(C(=O)O)CC5C=CCCCCCC(NC(=O)OC(C)(C)C)C(=O)N4C3)nccc2c1` (stereo not shown) [Compound 17A] was run?
Answer: Its pEC50 is 6.30 to 7.30.

Question: With `COc1ccc2c(O[C@@H]3C[C@H]4C(=O)N[C@]5(C(=O)O)C[C@H]5/C=C\CCCOC[C@H](NC(=O)OC(C)(C)C)C(=O)N4C3)nccc2c1` [Compound 84, (1S,4R,6S,14S,18R)-7-cis-14-tert-Butoxycarbonylamino-18-(6-methoxyisoquinolin-1-yloxy)-2,15-dioxo-12-oxa-3,16-diazatricyclo[14.3.0.0^4,6]-nonadec-7-ene-4-carboxylic acid] as the compound, how does the pEC50 read?
Answer: The pEC50 was 5.30 to 6.30.

Question: `CC(C)OC(=O)N[C@H]1CCCCC/C=C\[C@@H]2C[C@@]2(C(=O)NS(=O)(=O)C2CC2)NC(=O)[C@@H]2C[C@@H](Oc3nccc4ccccc34)CN2C1=O` [Compound 16, [4-Cyclopropanesulfonylaminocarbonyl-18-(isoquinolin-1-yloxy)-2,15-dioxo-3,16-diaza-tricyclo[14.3.0.0^4,6]nonadec-7-en-14-yl]-carbamic acid isopropyl ester] was tested. Which pEC50 did it give?
Answer: The pEC50 was over 7.30.

Question: How did the pEC50 turn out when `COc1ccc2c(OC3CC4C(=O)NC5(C(=O)NS(=O)(=O)C6CC6)CC5C=CCOCCCC(NC(=O)NC5CCCC5)C(=O)N4C3)nccc2c1` (stereo not shown) [Compound 33] was run?
Answer: The pEC50 was over 7.30.

Question: `COc1ccc2c(OC3CC4C(=O)NC5(C(=O)O)CC5C=CCCCCC(NC(=O)OC(C)(C)C)C(=O)N4C3)nccc2c1` (stereo not shown) [Compound 143] was tested. Which pEC50 did it give?
Answer: Its pEC50 is 5.30 to 6.30.

Question: `CCC1(S(=O)(=O)NC(=O)C23CC2C=CCOCCCC(NC(=O)OC(C)C)C(=O)N2CC(Oc4nccc5cc(OC)ccc45)CC2C(=O)N3)CC1` (stereo not shown) [Compound 37] was tested. Which pEC50 did it give?
Answer: Its pEC50 is over 7.30.

Question: How did the pEC50 turn out when `CC(C)(C)OC(=O)N[C@H]1CN(S(=O)(=O)c2ccccc2[N+](=O)[O-])CCC/C=C\[C@@H]2C[C@@]2(C(=O)O)NC(=O)[C@@H]2C[C@@H](Oc3nccc4ccccc34)CN2C1=O` [Compound 144] was run?
Answer: The pEC50 was 4.30 to 5.30.

Question: `CC(C)(C)OC(=O)N[C@H]1CCCCC/C=C\[C@@H]2C[C@@]2(C(=O)NS(=O)(=O)C2(Cc3ccccc3)CC2)NC(=O)[C@@H]2C[C@@H](Oc3nccc4ccccc34)CN2C1=O` [Compound 5, [4-(1-Benzyl-cyclopropanesulfonylaminocarbonyl)-18-(isoquinolin-1-yloxy)-2,15-dioxo-3,16-diaza-tricyclo[14.3.0.0^4,6]nonadec-7-en-14-yl]-carbamic acid tert-butyl ester] was tested. Which pEC50 did it give?
Answer: Its pEC50 is 6.30 to 7.30.

Question: How did the pEC50 turn out when `COCC(=O)NC1CCCCCC=CC2CC2(C(=O)NS(=O)(=O)C2CC2)NC(=O)C2CC(Oc3nccc4ccccc34)CN2C1=O` (stereo not shown) [Compound 24] was run?
Answer: Its pEC50 is 6.30 to 7.30.

Question: With `COc1ccc2c(OC3CC4C(=O)NC5(C(=O)NS(=O)(=O)C6CC6)CC5C=CCOCCCC(NC(=O)OCC(C)(C)C)C(=O)N4C3)nccc2c1` (stereo not shown) [Compound 32] as the compound, how does the pEC50 read?
Answer: Its pEC50 is over 7.30.

Question: `COC(=O)N[C@H]1CCCCC/C=C\[C@@H]2C[C@@]2(C(=O)NS(=O)(=O)C2CC2)NC(=O)[C@@H]2C[C@@H](Oc3nccc4ccccc34)CN2C1=O` [Compound 12, [4-Cyclopropanesulfonylaminocarbonyl-18-(isoquinolin-1-yloxy)-2,15-dioxo-3,16-diaza-tricyclo[14.3.0.0^4,6]nonadec-7-en-14-yl]-carbamic acid methyl ester] was tested. Which pEC50 did it give?
Answer: Its pEC50 is over 7.30.

Question: `CCC1(S(=O)(=O)NC(=O)C23CC2C=CCCCSCC(NC(=O)OCC(C)(C)C)C(=O)N2CC(Oc4nccc5cc(OC)ccc45)CC2C(=O)N3)CC1` (stereo not shown) [Compound 45] was tested. Which pEC50 did it give?
Answer: The pEC50 was over 7.30.

Question: `CCCNC(=O)NC1CCCCCC=CC2CC2(C(=O)NS(=O)(=O)C2CC2)NC(=O)C2CC(Oc3nccc4ccccc34)CN2C1=O` (stereo not shown) [Compound 23] was tested. Which pEC50 did it give?
Answer: Its pEC50 is over 7.30.

Question: With `CC(C)(OC(=O)NC1CCCCCC=CC2CC2(C(=O)NS(=O)(=O)C2CC2)NC(=O)C2CC(Oc3nccc4ccccc34)CN2C1=O)C(F)(F)F` (stereo not shown) [Compound 51] as the compound, how does the pEC50 read?
Answer: The pEC50 was over 7.30.
